Reference: patent US10450610B2, “Single nucleotide polymorphisms (SNP) and association with resistance to immune tolerance induction” (University of Tennessee Research Foundation, priority 2008, dated 2019)
Values joined by “and” are separate entries in the source; they are usually repeats but may differ in a detail not shown here. Identical values can stand only once.

Experiments:
[1] = system: BALB/c mice and DBA/1 lac J mice; assay: Effect of commonly used immunomodulatory drugs on oral tolerance induction (oral OVA or oral bovine CII); format: in vivo; details: for effect on tolerance induction: oral OVA in BALB/c mice and oral bovine CII in DBA/1 lac J mice; for OT induction to CII: DBA/1 lac J mice, prednisone at 10 mg/day equivalent
Method: Further, studies were conducted using oral OVA (1 mg/day×5 days) in BALB/c mice and oral bovine CII (10 μg×8 doses over 14 days) in DBA/1 lac J mice to test the effects of commonly used immunomodulatory drugs on immune induction ([…], hydroxychloroquine 400 mg/day, methotrexate 17.5 mg/week, leflunomide 20 mg/day after 100 mg/day×3 loading doses, sulfasalazine 2.5 gm/day, D-penicillamine 750 mg/day, IM gold, and etanercept 25 mg twice weekly).

spleen cells [2] = assay: COX-2 inhibitor SC′236 and oral tolerance induction; spleen cell IFNγ with α1(II) CB mixture (ELISA); format: in vivo, mice; details: for oral tolerance induction to CII: DBA/1 mice, assessed by IFNγ production by spleen cells
Method: Groups of 8 mice each were gavaged on MTTHF×2 weeks in the a.m. with PBS or SC′236 (5 μg/gm in 100 μl PBS). SC′236 (Searle) is ˜2000× more inhibitory for COX-2 than for COX-1.
Four of the mice given PBS in the a.m. and 4 mice given SC′236 in the a.m. were gavaged in the p.m. with 10 μg bovine type II collagen (CII). The other 4 mice in the a.m. PBS and a.m. SC′236 group were gavaged in the p.m. with 0.1M acetic acid (HAc) the vehicle the CII was dissolved in. After these 8 day feedings, all mice were rested for 1 week and then immunized with 100 μg of CII in complete Freund's adjuvant. After 10 days, all mice were sacrificed, and spleen cells (2×10^6/ml) were isolated and set up in culture with PBS and bovine α1(II) (50 μg/ml) CB mixture. After 4 days culture, the supernatants were harvested and IFNγ levels determined by ELISA (Endogen). Since the PBS+spleen cell culture from all mice produced between 1-12 pg/ml IFNγ, only the α1(II) data are plotted. All groups were compared to Placebo control group by Student's 2 sample t test.

DBA/1 Lac mice = assay: Low dose oral collagen II tolerance induction; arthritis after CII/CFA immunization; format: in vivo; details: 8 times over 2 weeks, FIG. 6
Method: Groups of 12 mice were fed oral CII at the doses indicated 8 times over 2 weeks […]. After 4 days rest, the mice were then immunized at the base of the tail with 100 μg CII emulsified with complete Freund's adjuvant. The degree of arthritis was assessed by a blinded observer for 8 weeks.
The percent of mice with grade 3 or 4 arthritis is indicated on the Y-axis. The biphasis response is due to induction of different tolerance mechanisms by low dose vs high dose CII. Low dose CII (10μg) induces regulatory T cells while high dose (500 μg) induces anergy or clonal deletion.

DBA/1 mice = assay: NSAID inhibition of oral tolerance induction to collagen II; arthritic joints scored; format: in vivo
Method: To determine whether tolerance induction to orally fed bovine CII in DBA/1 mice would be abrogated by orally fed NSAID, 3 groups of 20-22 DBA/1 mice were fed (by gavage) eight doses (Monday, Tuesday, Thursday, and Friday for 2 weeks) of the following: Placebo (saline) in the a.m. and Placebo (0.1 M HAc) in the p.m.; Placebo (saline) in the a.m. and 10 μg native bovine CII in the p.m.; or piroxicam (2.4 μg/gm) in the a.m. and native bovine CII (10 μg) in the p.m. After 1 week, all mice were immunized (intradermally at the base of tail) with 100 μg of bovine CII emulsified in complete Freund's adjuvant. Animals were placed in coded cages and were scored by a blinded observer twice weekly for the number of arthritic joints (joints swollen, red, and/or deformed).

spleen cells [3] = assay: IFNγ production by spleen cells of fed, CII-immunized mice cultured with α1(II) CB peptide mixture (ELISA); format: in vivo; details: fed with Placebo (alone); FIG. 8
Excerpt: To assess the effect of oral feeding of piroxicam to another group of mice fed Placebo or CII on spleen cell IFNγ production in a manner similar to the experiment in FIG. 7, four groups of mice (4 mice per group) were gavaged 8 days over 2 weeks with the following: Piroxicam a.m.—CII p.m.; Piroxicam a.m.—HAc p.m.; Saline a.m.—CII p.m.; or Saline a.m.—HAc p.m. After 1 week rest, all mice were immunized at the base of the tail with a CII—complete Freund's adjuvant emulsion. After 14 days, mice ere sacrificed, and spleen cells were isolated and set up in culture with PBS or α1(II)CB peptide mixture. After 72 h culture, harvested supernatants ere analyzed for IFNγ levels by ELISA.

[4] = system: mesenteric lymph node cells; assay: Mesenteric lymph node cell proliferation with α1(II) CB peptide mixture; format: in vivo, mice; details: mice fed either CII or piroxicam alone; FIG. 12
PBMC = assay: Oral collagen II in RA patients; IFNγ production (stimulation index) by PBMC cultured with α1(II); format: in vivo, human; details: for non-responders to oral CII: FIG. 13
Method: Immunological tolerance, defined as a ≥30% reduction in IFN-γ production by PBMC cultured with α1(II) of type II collagen, was examined in patients. Patients that were taking disease-modifying antirheumatic drugs, anti-TNF agents and/or non steroidal inflammatories were administered misoprostol 100 μg bid to reverse the non steroidal antiinflammatory inhibition of oral tolerance. Patients were randomized to receive “low” or “high” doses of CII. The Low Dose group (n=38) took daily 30 μg/day bovine CII for 10 weeks, then 50 μg/day for 10 weeks and then 70 μg/day for 10 weeks. The High Dose group (n=41) took 90 μg/day for 10 weeks, 110 μg/day for 10 weeks and then 130 μg/day for 10 weeks.
Heparinized blood was obtained at baseline and after each of the 10 week treatment periods. The blood was diluted 1:3 with RPMI 1640 containing penicillin (100 u/ml) and streptomycin (100 μg/ml) within 1-4 hours after collection, wrapped in paper, and placed in a styrofoam box containing a “cold pack” and shipped overnight. The PBMC were isolated from the blood samples and set up in culture with bovine α1(II) 25 μg/ml, PHA 10 μg/ml or with 50 ul PBS. After 6 days in culture, cell free supernatants were collected and stored at −70° for up to 7 months at which time all samples from a given patient were assayed for IFNγ by commercial ELISA (R & D Systems). The results are shown as in FIG. 13.
The IFNγ stimulation index (SI) was calculated as
[formula] The SI for patients receiving each of the low doses (30 μg, 50 μg and 70 μg/day) was compared with their SI at baseline before each of the 10 week treatments and similarly with the high dose CII group (90 μg, 110 μg and 130 μg/day) with their SI at baseline before each of the 10 week treatments.
SNP analysis was performed of 16 responders and 8 non-responders to oral CII to find the frequency of SNPs closely associated on chromosomes next to several cytokines and chemokines known to be important for oral tolerance induction. The 16 patients were those with had ≥50% reduction in IFNγ α1 stimulation index from baseline to either the 30 μg/day, 50 μg/day, 110 μg/day or 130 μg/day dose of CII (“OT Responders”). The 8 patients with increases in IFNγ α1 S.I. at the 30 μg/day, 50 μg/day, 110 μg/day or 130 μg/day doses of oral CII were selected (“OT Non-Responders”).

[5] = individual RA patients, No SNP A-1515737 AA genotype
[6] = individual RA patients, SNP A-1515737 AA genotype

O=C(O)c1cc(/N=N/c2ccc(S(=O)(=O)Nc3ccccn3)cc2)ccc1O [sulfasalazine]
effect on tolerance induction [1]: did not completely suppress tolerance

CN(Cc1cnc2nc(N)nc(N)c2n1)c1ccc(C(=O)N[C@@H](CCC(=O)O)C(=O)O)cc1 [methotrexate]
effect on tolerance induction [1]: did not completely suppress tolerance

CC(C)(S)[C@@H](N)C(=O)O [D-penicillamine]
effect on tolerance induction [1]: did not completely suppress tolerance

NS(=O)(=O)c1ccc(-n2nc(C(F)(F)F)cc2-c2ccc(Cl)cc2)cc1 [SC′236]
oral tolerance induction to CII (spleen cells [2]; listed as SC236): blocked oral tolerance induction
oral tolerance induction to CII (spleen cells [2]; listed as SC'236): abrogates oral tolerance induction
IFNγ production by spleen cells stimulated by α1(II) CB digest (spleen cells [2]; SC′236 5 μg/gm fed alone, FIG. 9): lower IFNγ production
IFNγ production by spleen cells cultured with α1(II) CB digest (spleen cells [2]; SC′236 + CII fed, p<0.01, FIG. 9): significant increase

bovine type II collagen [CII]
incidence of arthritis (percent of mice with grade 3 or 4 arthritis) (DBA/1 Lac mice; 10 μg/day oral CII): most effective in reducing the incidence of arthritis
incidence of arthritis (percent of mice with grade 3 or 4 arthritis) (DBA/1 Lac mice; 500 μg/day oral CII): also, but less, effective
percent of arthritic joints (DBA/1 mice; Placebo+CII (10 μg, eight doses) vs Placebo+Placebo fed controls, p<0.03, FIG. 7): less
IFNγ production by spleen cells cultured with α1(II) CB peptide mixture (spleen cells [3]): reduced production of IFNγ
IFNγ production by spleen cells stimulated by α1(II) CB digest (spleen cells [2]; CII 10 μg fed, vs Placebo control, p<0.025, FIG. 9): significant reduction
proliferation in response to α1(II) CB peptide mixture [4]: did not proliferate
suppression of IFNγ production (dose response) (PBMC; 30 μg, 50 μg and 110 μg/day of oral CII): maximal suppression
IFNγ SI (PBMC; 70 μg and 90 μg/day doses): did not reduce
IFNγ SI compared to baseline values (PBMC; 70 μg/day dose): significantly increased
patients with a 50% reduction in α1(II) stimulated IFNγ production (PBMC; 30, 50 and 110 μg/day oral CII): 69%
non-responders to oral CII (PBMC; 30-50 μg/day dose): 30%
non-responders to oral CII (PBMC; 110-130 μg/day dose): 28%
number of CII OT Non-Responder patients (PBMC; AA genotype): 7
number of CII OT Responder patients (PBMC; AA genotype): 1
number of CII OT Non-Responder patients (PBMC; Non-AA genotype): 2
number of CII OT Responder patients (PBMC; Non-AA genotype): 15
Ratio: After/baseline (IFNγ α1(II) SI) (PBMC; group mean, No SNP A-1515737 AA genotype): 0.427 ± 0.217
α1(II) SI After Oral CII (PBMC; group mean, No SNP A-1515737 AA genotype (17 patients)): 175 ± 46
Ratio: After/baseline (IFNγ α1(II) SI) (PBMC; group mean, SNP A-1515737 AA genotype): 3.512 ± 1.347
α1(II) SI After Oral CII (PBMC; group mean, SNP A-1515737 AA genotype (7 patients)): 613 ± 256
OT Responder (PBMC; [5]): Yes (15×) and No (2×)
Ratio: After/baseline (IFNγ α1(II) SI) (PBMC; [5]): 0.4932 and 1.9178 and 2.9064 and 0.0573 and 0.1034 and 0.4119 and 0.0789 and 0.0694 and 0.0631 and 0 and 0.0018 and 0.0176 and 0.3520 and 0.0423 and 0.2454 and 0.0030 and 0.1008
α1(II) SI After Oral CII (PBMC; individual RA patients, No SNP A-1515737 AA genotype, 30, 50 or 110 μg/day for 10 weeks): 360 and 280 and 590 and 152 and 6 and 276 and 18 (2×) and 503 and 19 and 0 and 3 and 7 and 358 and 93 and 540 and 246
OT Responder (PBMC; [6]): No (6×) and Yes
Ratio: After/baseline (IFNγ α1(II) SI) (PBMC; [6]): 2.3774 and 5.0500 and 2.9778 and 10.8021 and 0.0040 and 1.3688 and 2.0050
α1(II) SI After Oral CII (PBMC; individual RA patients, SNP A-1515737 AA genotype, 30, 50 or 110 μg/day for 10 weeks): 630 and 404 and 268 and 2020 and 3 and 167 and 800
oral tolerance to CII (reduced immune response to fed antigen) (PBMC; patients taking DMARDs, anti-TNF agents and NSAIDS, low dose misoprostol given): can be induced
IFNγ α1(II) S.I. after oral CII treatment (PBMC; patients who carried SNP A-1515737 AA, p=0.230): no significant change
IFNγ α1(II) S.I. after oral CII compared to baseline values (PBMC; patients without SNP A-1515737 AA (ROT1 AA) genotype, p<0.001): significant reduction
IFNγ SI (PBMC; ten weeks treatment with 30, 50, 110 and 130 μg/day oral CII, vs baseline): marked suppression

etanercept
effect on tolerance induction [1]: did not completely suppress tolerance

CCN(CCO)CCCC(C)Nc1ccnc2cc(Cl)ccc12 (centres unmarked) [hydroxychloroquine]
effect on tolerance induction [1]: did not completely suppress tolerance

Cc1oncc1C(=O)Nc1ccc(C(F)(F)F)cc1 [leflunomide]
effect on tolerance induction [1]: did not completely suppress tolerance

COc1ccc2cc(CCC(C)=O)ccc2c1 [nabumatone]
oral tolerance (OT) induction (DBA/1 mice; DBA/1 mice fed CII, FIG. 7 / similar studies (data not shown)): abrogated OT induction

C[C@]12C=CC(=O)C=C1CC[C@@H]1[C@@H]2C(=O)C[C@@]2(C)[C@H]1CC[C@]2(O)C(=O)CO [prednisone]
OT induction to CII [1]: did block OT induction to CII
effect on tolerance induction [1]: did not completely suppress tolerance

CC(=O)OC[C@H]1O[C@@H]([S-])[C@H](OC(C)=O)[C@@H](OC(C)=O)[C@@H]1OC(C)=O.CCP(CC)CC.[Au+] [auranofin]
OT induction to CII [1]: did block OT induction to CII
